PMC10318527, “Utilization of dietary mixed-linkage β-glucans by the Firmicute Blautia producta” (The Journal of Biological Chemistry, 2023)

Experiments:
[1] = system: B. producta ATCC 27340; test: Growth of B. producta on β-glucans; type: cell-based, Blautia producta ATCC 27340; conditions: minimal medium containing 1% glucan
Protocol: Active culture of B. producta and culture conditions were maintained following the recently reported procedure ([31]). Once B. producta grew, cells were centrifuged, and the obtained supernatant was decanted. A pellet of cells was then washed three times with phosphate-buffered saline (PBS) and washed cells were suspended in 2 ml PBS. […] The growth assessment experiments were performed for 96 h, following our recently established protocol ([82]).

[2] = system: BpGH16MLG; test: Initial screening of BpGH16MLG against substrates (TLC); type: biochemical, Blautia producta ATCC 27340; conditions: pH 5.7, 37 °C, 2 h
Protocol: After the appropriate incubation time, the reaction was terminated by boiling (5 min), and generated oligosaccharides were analyzed by thin layer chromatography (TLC). Typically, 1 μl of the reaction mixture was used for TLC analysis. TLC analysis was performed on Silica Gel 60 F254 (Merck), and produced sugars were visualized by spraying TLC with 5% H2SO4 in ethanol, followed by heating.

[3] = system: BoGH16MLG; parameters: method as in PMID 29141231; conditions: BoGH16MLG with barley MLG, no unit, cited from earlier work
[4] = system: BPGH16 mutant R331A; test: Kinetics of BPGH16 mutant R331A (DNS assay); type: biochemical, Blautia producta ATCC 27340
Protocol: The residues R331, L358, E379, D381, E384, W362, and H398 of BpGH16MLG were mutated to Ala by the Q5Site-Directed Mutagenesis Kit (New England Biolabs, UK, catalogue no. E0554S). Wild-type plasmid BpGH16-pET28a(+) was used as a template, and mutagenic forward and reverse primers were developed using NEBaseChanger with subtle modifications (Table S4). A 25 μl PCR cocktail was prepared for mutating each residue. The final concentration of Q5 Hot Start High-Fidelity 2X Master Mix was 1X, each primer was at 0.5 μM, the amount of used template was 20 ng, and the rest of the volume was made up of nuclease-free water. PCR was executed using the following conditions-initial denaturation was performed at 98 °C for 1 min, for each cycle-denaturation, annealing, and extension (72 °C) were set for 10 s, 20 s, and 7 min, respectively. A total of 25 cycles were performed, and the final extension was for 5 min 5 μl PCR products were loaded on 0.8% agarose gel to conform to the amplification of the mutagenic gene. Ligation of PCR products and cleavage of methylated template DNA was then performed using 5 μl KLD reaction buffer and 1 μl KLD enzyme cocktail at RT for 1 h. It was then transformed into E. coli TOP-10 cells and plasmids were isolated. The obtained plasmids were sequenced to confirm the mutation at the desired location. Once mutation was confirmed in a gene, the mutant plasmid was transformed into Rosetta (DE3) cells for protein expression. The mutant protein was then expressed as per the protocol mentioned earlier, and kinetics were performed with barley β-glucan.
Reactions were performed in 100 μl volume mixture using recombinant enzyme (final concentration at 0.1 mg/ml) in 50 mM sodium phosphate buffer (pH 5.7) at 37 °C for 1 h of incubation. Then, reactions were terminated by boiling for 5 min. Enzymatic assays were determined with 3,5- dinitrosalicylic acid (DNS) assay ([85]). In brief, 0.05 g Na2SO3 and 1 g DNS were mixed in a 50 ml water-containing reagent bottle and stirred about 6 h using a magnetic stirrer. After that, 200 μl phenol was added and made up to 100 ml. A working solution of DNS was prepared by adding 50 μl glucose (20% (w/v) stock) in prepared 100 ml of reagent mixtures and immediately used for experiments without adding NaOH. 80 μl DNS reagent was added to the reaction mixtures and incubated at 100 °C for 10 min, followed by ice-cooling for 10 min. Consequently, recorded the developed color spectrophotometrically at 575 nm ([85]). A standard curve generated by different concentrations of maltose was used for determining released reducing sugars in each case.

[5] = system: BPGH16 mutant H398A; test: Kinetics of BPGH16 mutant H398A (DNS assay); type: biochemical, Blautia producta ATCC 27340
Protocol: The residues R331, L358, E379, D381, E384, W362, and H398 of BpGH16MLG were mutated to Ala by the Q5Site-Directed Mutagenesis Kit (New England Biolabs, UK, catalogue no. E0554S). Wild-type plasmid BpGH16-pET28a(+) was used as a template, and mutagenic forward and reverse primers were developed using NEBaseChanger with subtle modifications (Table S4). A 25 μl PCR cocktail was prepared for mutating each residue. The final concentration of Q5 Hot Start High-Fidelity 2X Master Mix was 1X, each primer was at 0.5 μM, the amount of used template was 20 ng, and the rest of the volume was made up of nuclease-free water. PCR was executed using the following conditions-initial denaturation was performed at 98 °C for 1 min, for each cycle-denaturation, annealing, and extension (72 °C) were set for 10 s, 20 s, and 7 min, respectively. […] The mutant protein was then expressed as per the protocol mentioned earlier, and kinetics were performed with barley β-glucan.
Reactions were performed in 100 μl volume mixture using recombinant enzyme (final concentration at 0.1 mg/ml) in 50 mM sodium phosphate buffer (pH 5.7) at 37 °C for 1 h of incubation. […] Enzymatic assays were determined with 3,5- dinitrosalicylic acid (DNS) assay ([85]). […] Consequently, recorded the developed color spectrophotometrically at 575 nm ([85]). […]

[6] = system: β-glucan utilization locus of B. producta; test: RT-qPCR of β-glucan utilization locus genes; type: cell-based, Blautia producta ATCC 27340
Protocol: Changes in the transcript expression levels of the β-glucan utilization locus of B. producta were performed by RT-qPCR. B. producta was initially cultured in 5 ml of GAM for 24 h and cells were spun down by centrifugation and washed three times with sterile PBS. […] Immediately, 300 μl saturated phenol with citrate buffer (pH 4.3, […] Sigma Aldrich) was added, and the mixed solution was incubated at 60 °C for 5 min with mild shaking. After that, it was centrifuged at 15,000 g for 5 min, and the upper aqueous phase was transferred into a new Eppendorf tube. It was mixed with three volumes of chilled ethanol and incubated for 30 min at -80 °C. The precipitate was then collected by centrifugation at the same speed, the pellet was washed with 70% ethanol twice, and the final white residue was dissolved in 100 to 500 μl of distilled water. The concentration of total RNA was calculated by a spectrophotometer at 260 nm. If a residual amount of DNA was observed, DNase-1 treatment was also given, following the manufacturer's instructions (AMPD1, Sigma Aldrich). About 2 μg total RNA was immediately used for reverse transcription using AccuScript High Fidelity cDNA Synthesis Kit (Agilent). RT-qPCR was performed in a 96-well plate on a CFX96 qPCR system (BioRad) using SYBR Green Master (BioRad), using the primers mentioned in Table S2. The qPCR reactions were executed in 10 μl, consisting of 5 μl of SYBR green mix, 30 ng of cDNA, and one pmol of each primer of a gene of the locus or 16S rRNA (Table S2). […] The 2^ˆ-ΔΔCt method calculated the expression of each gene and normalized data to 16S rRNA transcript level. Finally, the expression level of each gene was calculated as fold change compared with cultures of a minimal medium containing 1% glucose. Three technical replicates were used for bar generation of each gene expression; each bar represents average values and error bars indicate the standard errors of three technical replicates.

[7] = 1% barley β-glucan compared to glucose

Barley β-glucan
growth of B. producta on the glucan [1]: showed growth
growth of B. producta on the glucan ([1]; listed as barley MLG): able to grow
activity of BpGH16MLG on substrate (initial screening) [2]: did cleave
kcat ([3]; in 1/s): 85.8 ± 4.6
Km ([3]; in mg/mL): 0.364 ± 0.051
increase in Km ([4]; R331A versus native enzyme): < 2 fold
reduction in kcat ([4]; R331A versus native enzyme): ~1.3 fold
Km ([4]; mutant R331A, DNS assay): 0.35 ± 0.05 mg/mL
kcat ([4]; mutant R331A, DNS assay): 48 ± 0.8 s⁻¹
kcat [5]: 0 s⁻¹
upregulation of bp1313 expression [6, 7]: 5.2 fold
upregulation of bp1314 expression [6, 7]: 3.9 fold
upregulation of bp1316 expression ([6]; barley MLG versus glucose): 4.7 fold
upregulation of bp1317 expression ([6]; barley MLG versus glucose): 5 fold
upregulation of bp1318 expression ([6]; barley MLG versus glucose): 4.5 fold
fold change in expression of transcriptional regulator bp1315 ([6]; barley β-glucan compared to glucose): 0.76 fold
